Our source for the IC50 values is ChEMBL document CHEMBL4715851, “Research advances on selective phosphatidylinositol 3 kinase δ (PI3Kδ) inhibitors” (Bioorg Med Chem Lett, 2020).

The structures appear in SMILES notation.

A short description of assay [1]: Inhibition of C-terminal PI3Kdelta/p85 (unknown origin) expressed in baculovirus expression system using Phosphatidylinositol as substrate in presence of ATP by TR-FRET assay. Also on record: species or system Homo sapiens.
The target of assay [2] is T1, Phosphatidylinositol 4,5-bisphosphate 3-kinase catalytic subunit delta isoform (Homo sapiens, UniProt O00329).
T1 sequence (O00329 whole entry): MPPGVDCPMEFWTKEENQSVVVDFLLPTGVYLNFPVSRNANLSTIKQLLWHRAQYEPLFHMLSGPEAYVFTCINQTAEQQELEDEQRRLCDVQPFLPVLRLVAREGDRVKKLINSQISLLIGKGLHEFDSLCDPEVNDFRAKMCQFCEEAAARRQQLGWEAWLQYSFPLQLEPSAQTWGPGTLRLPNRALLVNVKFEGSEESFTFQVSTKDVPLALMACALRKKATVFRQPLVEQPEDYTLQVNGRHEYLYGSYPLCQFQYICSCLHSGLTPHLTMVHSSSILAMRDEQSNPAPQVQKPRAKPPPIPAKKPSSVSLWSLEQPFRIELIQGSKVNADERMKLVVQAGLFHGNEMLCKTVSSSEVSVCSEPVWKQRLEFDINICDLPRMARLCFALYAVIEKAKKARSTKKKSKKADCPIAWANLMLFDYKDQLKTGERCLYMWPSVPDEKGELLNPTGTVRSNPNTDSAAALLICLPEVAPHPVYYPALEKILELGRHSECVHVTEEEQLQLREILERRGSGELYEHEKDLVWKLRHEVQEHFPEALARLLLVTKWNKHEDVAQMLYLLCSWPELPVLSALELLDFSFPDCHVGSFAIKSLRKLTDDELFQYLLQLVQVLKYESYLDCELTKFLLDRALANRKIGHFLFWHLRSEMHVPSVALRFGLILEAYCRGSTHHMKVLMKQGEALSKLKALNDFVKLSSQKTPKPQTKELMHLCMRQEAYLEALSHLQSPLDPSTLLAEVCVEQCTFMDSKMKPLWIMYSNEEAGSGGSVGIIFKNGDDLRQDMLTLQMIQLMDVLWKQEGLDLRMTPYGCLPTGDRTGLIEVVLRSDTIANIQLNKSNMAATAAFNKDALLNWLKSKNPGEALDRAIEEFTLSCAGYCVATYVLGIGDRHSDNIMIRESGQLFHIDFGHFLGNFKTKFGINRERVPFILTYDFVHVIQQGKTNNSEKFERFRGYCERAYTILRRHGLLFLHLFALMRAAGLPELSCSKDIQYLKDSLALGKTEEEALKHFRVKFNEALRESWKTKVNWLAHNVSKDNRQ
Nature of the assay: Inhibition of PI3K-delta (unknown origin).

Consider `C[C@H](Nc1ncnc2scnc12)c1cc2cccc(-c3cnn(C)c3)c2c(=O)n1-c1ccccc1`, for which the IC50 – broadly, the point on the concentration scale where inhibition reaches its midpoint – in assay [1] is less than 100 nM.

The compound `C=Cc1ccc2oc3ccc(=O)n(-c4cccc(NC(=O)c5ccc(OC)nc5)c4)c3c2c1` returned a concentration for half-maximal inhibition (IC50) in assay [2] of 170 nM.
